In ChEMBL document CHEMBL4665787, “Bifunctional and Unusual Amino Acid β- or γ-Ester Prodrugs of Nucleoside Analogues for Improved Affinity to ATB and Enhanced Metabolic Stability: An Application to Floxuridine” (J Med Chem, 2020):
Calls of active or inactive are those of the source. The calls are words filed in the database; no cut-off is given here.

Legend:
[1] = target: T1, Sodium- and chloride-dependent neutral and basic amino acid transporter B(0+) (Homo sapiens) (UniProt Q9UN76); test: Substrate activity at SLC6A14 (unknown origin) expressed in Xenopus laevis oocytes assessed as inhibition of drug uptake at 0.5 mM incubated for 10 mins in presence of glycine by HPLC analysis relative to control; format: cell-based; conditions: Oocyte
T1 sequence (whole entry): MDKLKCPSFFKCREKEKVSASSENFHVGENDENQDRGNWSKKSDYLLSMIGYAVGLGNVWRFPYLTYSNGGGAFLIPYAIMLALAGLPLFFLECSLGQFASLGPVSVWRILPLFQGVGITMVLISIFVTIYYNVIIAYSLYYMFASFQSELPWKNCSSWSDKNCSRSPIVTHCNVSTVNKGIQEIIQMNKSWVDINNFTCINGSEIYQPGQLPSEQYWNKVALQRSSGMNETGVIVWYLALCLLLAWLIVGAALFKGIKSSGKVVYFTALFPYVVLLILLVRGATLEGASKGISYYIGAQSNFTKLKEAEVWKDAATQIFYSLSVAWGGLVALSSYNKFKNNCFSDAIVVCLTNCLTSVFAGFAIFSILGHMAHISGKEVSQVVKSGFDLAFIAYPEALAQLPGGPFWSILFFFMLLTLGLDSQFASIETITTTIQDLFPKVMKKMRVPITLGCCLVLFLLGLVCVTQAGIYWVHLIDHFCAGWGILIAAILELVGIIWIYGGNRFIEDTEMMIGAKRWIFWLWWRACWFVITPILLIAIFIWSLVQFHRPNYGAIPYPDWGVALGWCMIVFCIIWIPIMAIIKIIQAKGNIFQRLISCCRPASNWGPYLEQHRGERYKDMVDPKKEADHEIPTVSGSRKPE

[2] = AUC (0 to t) in NOD SCID nude mouse plasma xenografted with ZR-75-1 cells assessed as fluorouracil AUC at 90 mg/kg, iv measured up to 24 hrs by HPLC-MS/MS analysis; format: ADME, organism-based; set-up: route intravenous, dose 90 mg/kg, time <=24; conditions: in vivo
MIA PaCa-2 [3] = test: Potency index, ratio of FUdR GI50 to test compound GI50 for growth inhibition of human MIA-PaCa-2 cells; format: functional
ZR-75-1 [4] = test: Potency index, ratio of FUdR GI50 to test compound GI50 for growth inhibition of human ZR-75-1 cells; format: functional
[5] = Half life in rat plasma at 200 uM measured up to 120 mins by HPLC-MS/MS analysis; format: ADME, cell-free
ZR-75-1 [6] = test: Antitumour activity against human ZR-75-1 cells xenografted in NOD SCID nude mouse assessed as tumour inhibition at 90 mg/kg, iv administered for 20 days measured every 2 day by caliper method relative to control; format: functional; conditions: ZR-75-1, iv, 480 h, time 20 day
[7] = Toxicity in NOD SCID nude mouse xenografted with human MIA PaCa-2 cells assessed as body weight at 90 mg/kg, iv for 20 days (reference value: 28.4 +/- 2.1g); format: organism-based; conditions: in vivo, 480 h, time 20 day
[8] = Drug uptake in Xenopus laevis oocytes at 0.5 mM incubated for 10 mins by HPLC analysis; format: ADME, cell-based; conditions: oocyte, 500 µM
[9] = Drug uptake in MDCK cells incubated for 10 mins by HPLC analysis; format: ADME, cell-based, Canis lupus familiaris; conditions: dog, 500 µM, dose 0.5 mM
[10] = target: T1, Sodium- and chloride-dependent neutral and basic amino acid transporter B(0+) (Homo sapiens); test: Substrate activity at SLC6A14 (unknown origin) expressed in Xenopus laevis oocytes assessed as increase in ABT0+ mediated drug uptake at 1 mM in presence of Na+ ion by HPLC analysis; format: cell-based; conditions: Oocyte
[11] = target: T2, Sodium- and chloride-dependent neutral and basic amino acid transporter B(0+) (Homo sapiens, UniProt Q9UN76); test: Substrate activity at SLC6A14 (unknown origin) expressed in Xenopus laevis oocytes assessed as ABT0+ mediated drug uptake at 0.5 mM incubated for 10 mins by HPLC analysis; format: ADME, cell-based; conditions: oocyte, 500 µM
T2 sequence (Q9UN76 whole entry): T1 sequence (whole entry)

[12] = Toxicity in NOD SCID nude mouse xenografted with human MDA-MB-231 cells assessed as body weight at 90 mg/kg, iv for 20 days (reference value: 30.1 +/- 4.1g); format: organism-based; conditions: in vivo, 480 h, time 20 day
[13] = Selectivity ratio of substrate activity at SLC6A14 (unknown origin) expressed in Xenopus laevis oocytes assessed as ABT0+ mediated drug uptake to drug uptake in Xenopus laevis oocytes; set-up: species or system Oocyte
[14] = AUC (0 to t) in NOD SCID nude mouse plasma xenografted with ZR-75-1 cells assessed as floxuridine; 5-fluoro-2-deoxyuridine AUC at 90 mg/kg, iv measured up to 24 hrs by HPLC-MS/MS analysis; format: ADME, organism-based; set-up: route intravenous, dose 90 mg/kg, time <=24; conditions: in vivo
MDA-MB-231 [15] = test: Antitumour activity against human MDA-MB-231 cells xenografted in NOD SCID nude mouse assessed as tumour inhibition at 90 mg/kg, iv administered for 20 days measured every 2 day by caliper method relative to control; format: functional; conditions: MDA-MB-231, iv, 480 h, time 20 day
MDA-MB-231 [16] = test: Potency index, ratio of FUdR GI50 to test compound GI50 for growth inhibition of human MDA-MB-231 cells; format: functional
[17] = Ratio of AUC (0 to t) in NOD SCID nude mouse plasma xenografted with ZR-75-1 cells to AUC (0 to t) in NOD SCID mouse tumour xenografted with ZR-75-1 cells; format: ADME, cell-free, Tumor/Plasma
MIA PaCa-2 [18] = test: Antitumour activity against human MIA-PaCa-2 cells xenografted in NOD SCID nude mouse assessed as tumour inhibition at 90 mg/kg, iv administered for 20 days measured every 2 day by caliper method relative to control; format: functional; conditions: MIA PaCa-2, iv, 480 h, time 20 day
[19] = target: T2, Sodium- and chloride-dependent neutral and basic amino acid transporter B(0+); test: Substrate activity at SLC6A14 (unknown origin) expressed in Xenopus laevis oocytes assessed as inhibition of glycine uptake incubated for 10 mins by HPLC/MS/MS analysis; format: cell-based, Oocyte
[20] = Selectivity ratio of substrate activity at PEPT1 (unknown origin) expressed in MDCK cells assessed as PEPT1 mediated drug uptake to drug uptake in MDCK cells
[21] = target: T1, Sodium- and chloride-dependent neutral and basic amino acid transporter B(0+) (Homo sapiens); test: Substrate activity at SLC6A14 (unknown origin) expressed in Xenopus laevis oocytes assessed as increase in ABT0+ mediated drug uptake at 1 mM in presence of Cl- ion by HPLC analysis; format: cell-based; conditions: Oocyte
[22] = Cmax in NOD SCID nude mouse tumour xenografted with ZR-75-1 cells assessed as floxuridine; 5-fluoro-2-deoxyuridine concentration at 90 mg/kg, iv measured up to 24 hrs by HPLC-MS/MS analysis; format: ADME, organism-based, Neoplasm; set-up: route intravenous, dose 90 mg/kg, time <=24; conditions: in vivo
[23] = Cmax in NOD SCID nude mouse plasma xenografted with ZR-75-1 cells assessed as fluorouracil at 90 mg/kg, iv measured up to 24 hrs by HPLC-MS/MS analysis; format: ADME, organism-based; set-up: route intravenous, dose 90 mg/kg, time <=24; conditions: in vivo
[24] = AUC (0 to t) in NOD SCID nude mouse plasma xenografted with ZR-75-1 cells at 90 mg/kg, iv measured up to 24 hrs by HPLC-MS/MS analysis; format: ADME, organism-based; set-up: route intravenous, dose 90 mg/kg, time <=24
[25] = Cmax in NOD SCID nude mouse plasma xenografted with ZR-75-1 cells assessed as floxuridine; 5-fluoro-2-deoxyuridine concentration at 90 mg/kg, iv measured up to 24 hrs by HPLC-MS/MS analysis; format: ADME, organism-based; set-up: route intravenous, dose 90 mg/kg, time <=24; conditions: in vivo

N[C@@H](CC(=O)OC[C@H]1O[C@@H](n2cc(F)c(=O)[nH]c2=O)C[C@@H]1O)C(=O)O
inhibition [1]: 50% | AUCt [2]: 588.2 ng·h/mL | RatioGI50 (MIA PaCa-2 [3]): 7 | RatioGI50 (ZR-75-1 [4]): 7 | half-life at 200 µM [5]: 2.49 h | inhibition in vivo at 90 mg/kg (ZR-75-1 [6]): 58.6% | Activity [7]: 26.3 g | Drug uptake [8]: 0.32 nmol/mg/min | Drug uptake [9]: < 0.04 nmol/mg/min | Activity [10]: Active | Drug uptake [11]: 2.97 nmol/mg/min | Activity [12]: 27.6 g | Ratio [13]: 9.28 | AUC [14]: 1172.9 ng·h/mL | inhibition in vivo at 90 mg/kg (MDA-MB-231 [15]): 33.8% | RatioGI50 (MDA-MB-231 [16]): 7 | Ratio [17]: 3.9 | inhibition in vivo at 90 mg/kg (MIA PaCa-2 [18]): 62.4% | IC50 [19]: 820 µM | Ratio [20]: 1 | Activity [21]: Active | Cmax [22]: 700.2 ng/g | Cmax [23]: 67.8 ng/mL | AUC(0-t) at 24 h [24]: 5070 ng·h/mL | Cmax [25]: 145.9 ng/mL
